Experimental data as given in patent US20130143881A1, “Hydrated Crystalline Forms of N-[3-fluoro-4-(oxy)phenyl]-N'-(4-fluorophenyl)cyclopropane-1,1-dicarboxamide” (Exelixis, Inc., priority 2010, published 2013).

Test: Gravimetric vapor sorption (GVS) study
Assay type: physicochemical
Settings: 25° C. and 90 percent humidity
Procedure: A gravimetric vapor sorption (GVS) study was run using a standard procedure. Samples were run on a dynamic vapor sorption analyzer (Surface Measurement Systems) running DVSCFR software. Sample sizes were typically 10 mg. A moisture adsorption desorption isotherm was performed as outlined below. The standard isotherm experiment, performed at 25° C., is a two-cycle run, starting at 40 percent RH, increasing humidity to 90 percent RH, decreasing humidity to 0 percent RH, increasing humidity again to 90 percent RH, and finally decreasing humidity to 0 percent RH in 10 percent RH intervals.

## COc1cc2c(Oc3ccc(NC(=O)C4(C(=O)Nc5ccc(F)cc5)CC4)cc3F)ccnc2cc1OCCCN1CCOCC1 [crystalline Compound (I), N-[3-fluoro-4-({6-(methyloxy)-7-[(3-morpholin-4-ylpropyl)oxy]quinolin-4-yl}oxy)phenyl]-N′-(4-fluorophenyl)cyclopropane-1,1-dicarboxamide crystalline hydrate]
  weight gain (GVS moisture sorption): 2.5%
